# Laboratory results published in ChEMBL document CHEMBL4190351, “Synthesis and biological evaluation of novel 6,11-dihydro-5H-benzo[e]pyrimido- [5,4-b][1,4]diazepine derivatives as potential c-Met inhibitors” (Eur J Med Chem, 2017).
# What was measured:
# [1] = biological target: Hepatocyte growth factor receptor (Homo sapiens, UniProt P08581); experiment: Inhibition of cMet (unknown origin) using poly(Glu, Tyr)4:1 substrate and ATP incubated fro 60 mins by ELISA
# CAKI-1 [2] = experiment: Cytotoxicity in human Caki1 cells incubated for 72 hrs by sulforhodamine B assay; details: CAKI-1, 72 h
# PANC-1 = experiment: Cytotoxicity in human PANC1 cells incubated for 72 hrs by sulforhodamine B assay; details: PANC-1, 72 h
# PC-3 = experiment: Cytotoxicity in human PC3 cells incubated for 72 hrs by sulforhodamine B assay; details: PC-3, 72 h
# HepG2 = experiment: Cytotoxicity in human HepG2 cells incubated for 72 hrs by sulforhodamine B assay; details: HepG2, 72 h
# [3] = AUC (0 to infinity) in Sprague-Dawley rat at 4 mg/kg, iv measured after 5 mins to 4 hrs post dose by LC-MS/MS method; assay type: ADME, organism-based; parameters: dose 4 mg/kg, time infinity, route intravenous; details: in vivo
# CAKI-1 [4] = experiment: Antitumor activity in human Caki1 cells xenografted in nude mouse assessed as inhibition of tumor growth at 80 mg/kg, ig qd for 21 days; assay type: functional; details: CAKI-1, po, 504 h, read-out: TGI
# [5] = Apparent clearance during terminal phase in Sprague-Dawley rat at 20 mg/kg, po measured after 5 mins to 4 hrs post dose by LC-MS/MS method; assay type: ADME, organism-based; details: in vivo, read-out: CLz/F (converted)
# CAKI-1 [6] = experiment: Antitumor activity in human Caki1 cells xenografted in nude mouse assessed as inhibition of tumor growth at 20 mg/kg, ig qd for 21 days; assay type: functional; details: CAKI-1, po, 504 h, read-out: TGI
# Mus musculus [7] = experiment: Toxicity in human Caki1 cells xenografted nude mouse assessed as drug tolerance at 20 to 80 mg/kg, ig qd for 21 days; assay type: organism-based; details: in vivo, po, 504 h
# [8] = Elimination half life in Sprague-Dawley rat at 4 mg/kg, iv measured after 5 mins to 4 hrs post dose by LC-MS/MS method; assay type: ADME, organism-based; details: in vivo, read-out: beta t1/2 (converted)
# [9] = biological target: Epidermal growth factor receptor (Homo sapiens, UniProt P00533); experiment: Inhibition of EGFR (unknown origin)
# [10] = Cmax in Sprague-Dawley rat at 4 mg/kg, iv measured after 5 mins to 4 hrs post dose by LC-MS/MS method; assay type: ADME, organism-based; parameters: dose 4 mg/kg, route intravenous; details: in vivo
# [11] = biological target: T1, Receptor-type tyrosine-protein kinase FLT3 (Homo sapiens, UniProt P36888); experiment: Inhibition of FLT3 (unknown origin)
# T1 sequence (P36888 whole entry): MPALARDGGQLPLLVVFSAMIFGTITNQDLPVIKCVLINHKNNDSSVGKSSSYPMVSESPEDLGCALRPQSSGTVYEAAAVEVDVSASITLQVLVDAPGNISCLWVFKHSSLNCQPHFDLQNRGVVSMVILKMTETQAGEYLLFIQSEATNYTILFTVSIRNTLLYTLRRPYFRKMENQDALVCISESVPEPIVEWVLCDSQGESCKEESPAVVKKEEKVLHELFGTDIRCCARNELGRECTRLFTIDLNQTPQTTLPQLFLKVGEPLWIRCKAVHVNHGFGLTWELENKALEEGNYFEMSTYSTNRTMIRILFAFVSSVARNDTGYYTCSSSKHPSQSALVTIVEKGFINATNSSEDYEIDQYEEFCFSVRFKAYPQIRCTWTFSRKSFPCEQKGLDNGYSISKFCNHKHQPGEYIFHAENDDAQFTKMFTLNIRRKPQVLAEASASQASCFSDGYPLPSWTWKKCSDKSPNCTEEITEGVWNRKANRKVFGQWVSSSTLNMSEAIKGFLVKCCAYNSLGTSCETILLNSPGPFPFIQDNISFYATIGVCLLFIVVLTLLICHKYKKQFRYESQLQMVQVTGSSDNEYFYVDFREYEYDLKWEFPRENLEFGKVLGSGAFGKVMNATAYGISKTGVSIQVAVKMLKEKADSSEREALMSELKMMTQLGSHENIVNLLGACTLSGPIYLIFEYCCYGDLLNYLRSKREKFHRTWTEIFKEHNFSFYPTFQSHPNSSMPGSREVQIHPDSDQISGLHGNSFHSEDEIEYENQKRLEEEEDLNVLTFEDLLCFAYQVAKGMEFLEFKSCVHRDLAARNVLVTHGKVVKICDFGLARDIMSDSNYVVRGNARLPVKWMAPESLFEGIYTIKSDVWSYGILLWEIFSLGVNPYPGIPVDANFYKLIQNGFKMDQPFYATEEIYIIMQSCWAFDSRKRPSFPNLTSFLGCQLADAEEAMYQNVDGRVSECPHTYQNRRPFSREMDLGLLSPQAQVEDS
# Mus musculus [12] = experiment: Toxicity in KM mouse assessed as mouse mortality at 520 mg/kg, po administered as single dose measured daily for 14 days; assay type: organism-based; details: in vivo, 336 h
# [13] = MRT (0 to t) in Sprague-Dawley rat at 20 mg/kg, po measured after 5 mins to 4 hrs post dose by LC-MS/MS method; assay type: ADME, organism-based; details: in vivo
# [14] = MRT (0 to t) in Sprague-Dawley rat at 4 mg/kg, iv measured after 5 mins to 4 hrs post dose by LC-MS/MS method; assay type: ADME, organism-based; details: in vivo
# [15] = Oral bioavailability in Sprague-Dawley rat at 20 mg/kg measured after 5 mins to 4 hrs post dose by LC-MS/MS method; assay type: ADME, organism-based; details: in vivo
# [16] = AUC (0 to infinity) in Sprague-Dawley rat at 20 mg/kg, po measured after 5 mins to 4 hrs post dose by LC-MS/MS method; assay type: ADME, organism-based; parameters: dose 20 mg/kg, time infinity, route oral; details: in vivo
# Mus musculus [17] = experiment: Toxicity in KM mouse assessed as mouse mortality at 620 mg/kg, po administered as single dose measured daily for 14 days; assay type: organism-based; details: in vivo, 336 h
# [18] = Toxicity in KM mouse assessed as mouse survival at 520 mg/kg, po administered as single dose measured daily for 14 days (reference value: 100%); assay type: organism-based; details: in vivo
# [19] = Toxicity in KM mouse assessed as mouse survival at 820 mg/kg, po administered as single dose measured daily for 14 days (reference value: 100%); assay type: organism-based; details: in vivo
# Rattus norvegicus [20] = experiment: Apparent clearance during terminal phase in Sprague-Dawley rat at 4 mg/kg, iv measured after 5 mins to 4 hrs post dose by LC-MS/MS method; assay type: ADME, organism-based; details: in vivo
# [21] = Elimination half life in Sprague-Dawley rat at 20 mg/kg, po measured after 5 mins to 4 hrs post dose by LC-MS/MS method; assay type: ADME, organism-based; details: in vivo, read-out: beta t1/2 (converted)
# Mus musculus [22] = experiment: Toxicity in KM mouse assessed as mouse mortality at 420 mg/kg, po administered as single dose measured daily for 14 days; assay type: organism-based; details: in vivo, 336 h
# [23] = Toxicity in KM mouse assessed as mouse survival at 420 mg/kg, po administered as single dose measured daily for 14 days (reference value: 100%); assay type: organism-based; details: in vivo
# [24] = Toxicity in KM mouse assessed as mouse survival at 620 mg/kg, po administered as single dose measured daily for 14 days (reference value: 100%); assay type: organism-based; details: in vivo
# [25] = Toxicity in KM mouse assessed as mouse survival at 920 mg/kg, po administered as single dose measured daily for 14 days (reference value: 100%); assay type: organism-based; details: in vivo
# [26] = AUC (0 to t) in Sprague-Dawley rat at 4 mg/kg, iv measured after 5 mins to 4 hrs post dose by LC-MS/MS method; assay type: ADME, organism-based; parameters: time 0.083-4 hr, dose 4 mg/kg, route intravenous; details: in vivo
# [27] = AUC (0 to t) in Sprague-Dawley rat at 20 mg/kg, po measured after 5 mins to 4 hrs post dose by LC-MS/MS method; assay type: ADME, organism-based; parameters: time 0.083-4 hr, dose 20 mg/kg, route oral; details: in vivo
# [28] = biological target: Voltage-gated inwardly rectifying potassium channel KCNH2 (Homo sapiens, UniProt Q12809); experiment: Inhibition of human ERG at holding potential of -80 mV by cell based automated Qpatch method
# Rattus norvegicus [29] = experiment: Apparent volume of distribution during terminal phase in Sprague-Dawley rat at 4 mg/kg, iv measured after 5 mins to 4 hrs post dose by LC-MS/MS method; assay type: ADME, organism-based; details: in vivo
# [30] = Apparent volume of distribution during terminal phase in Sprague-Dawley rat at 20 mg/kg, po measured after 5 mins to 4 hrs post dose by LC-MS/MS method; assay type: ADME, organism-based; details: in vivo, read-out: Vz/F
# [31] = biological target: Vascular endothelial growth factor receptor 2 (Homo sapiens, UniProt P35968); experiment: Inhibition of VEGFR2 (unknown origin)
# [32] = biological target: Proto-oncogene tyrosine-protein kinase receptor Ret (Homo sapiens, UniProt P07949); experiment: Inhibition of RET (unknown origin)
# [33] = biological target: Mast/stem cell growth factor receptor Kit (Homo sapiens, UniProt P10721); experiment: Inhibition of cKIT (unknown origin)
# [34] = Cmax in Sprague-Dawley rat at 20 mg/kg, po measured after 5 mins to 4 hrs post dose by LC-MS/MS method; assay type: ADME, organism-based; parameters: dose 20 mg/kg, route oral; details: in vivo
# [35] = Tmax in Sprague-Dawley rat at 20 mg/kg, po measured after 5 mins to 4 hrs post dose by LC-MS/MS method; assay type: ADME, organism-based; details: in vivo
# CAKI-1 [36] = experiment: Antitumor activity in human Caki1 cells xenografted in nude mouse assessed as inhibition of tumor growth at 40 mg/kg, ig qd for 21 days; assay type: functional; details: CAKI-1, po, 504 h, read-out: TGI
# [37] = Toxicity in KM mouse assessed as mouse survival at 720 mg/kg, po administered as single dose measured daily for 14 days (reference value: 100%); assay type: organism-based; details: in vivo
# Sequence of Hepatocyte growth factor receptor (P08581 whole entry): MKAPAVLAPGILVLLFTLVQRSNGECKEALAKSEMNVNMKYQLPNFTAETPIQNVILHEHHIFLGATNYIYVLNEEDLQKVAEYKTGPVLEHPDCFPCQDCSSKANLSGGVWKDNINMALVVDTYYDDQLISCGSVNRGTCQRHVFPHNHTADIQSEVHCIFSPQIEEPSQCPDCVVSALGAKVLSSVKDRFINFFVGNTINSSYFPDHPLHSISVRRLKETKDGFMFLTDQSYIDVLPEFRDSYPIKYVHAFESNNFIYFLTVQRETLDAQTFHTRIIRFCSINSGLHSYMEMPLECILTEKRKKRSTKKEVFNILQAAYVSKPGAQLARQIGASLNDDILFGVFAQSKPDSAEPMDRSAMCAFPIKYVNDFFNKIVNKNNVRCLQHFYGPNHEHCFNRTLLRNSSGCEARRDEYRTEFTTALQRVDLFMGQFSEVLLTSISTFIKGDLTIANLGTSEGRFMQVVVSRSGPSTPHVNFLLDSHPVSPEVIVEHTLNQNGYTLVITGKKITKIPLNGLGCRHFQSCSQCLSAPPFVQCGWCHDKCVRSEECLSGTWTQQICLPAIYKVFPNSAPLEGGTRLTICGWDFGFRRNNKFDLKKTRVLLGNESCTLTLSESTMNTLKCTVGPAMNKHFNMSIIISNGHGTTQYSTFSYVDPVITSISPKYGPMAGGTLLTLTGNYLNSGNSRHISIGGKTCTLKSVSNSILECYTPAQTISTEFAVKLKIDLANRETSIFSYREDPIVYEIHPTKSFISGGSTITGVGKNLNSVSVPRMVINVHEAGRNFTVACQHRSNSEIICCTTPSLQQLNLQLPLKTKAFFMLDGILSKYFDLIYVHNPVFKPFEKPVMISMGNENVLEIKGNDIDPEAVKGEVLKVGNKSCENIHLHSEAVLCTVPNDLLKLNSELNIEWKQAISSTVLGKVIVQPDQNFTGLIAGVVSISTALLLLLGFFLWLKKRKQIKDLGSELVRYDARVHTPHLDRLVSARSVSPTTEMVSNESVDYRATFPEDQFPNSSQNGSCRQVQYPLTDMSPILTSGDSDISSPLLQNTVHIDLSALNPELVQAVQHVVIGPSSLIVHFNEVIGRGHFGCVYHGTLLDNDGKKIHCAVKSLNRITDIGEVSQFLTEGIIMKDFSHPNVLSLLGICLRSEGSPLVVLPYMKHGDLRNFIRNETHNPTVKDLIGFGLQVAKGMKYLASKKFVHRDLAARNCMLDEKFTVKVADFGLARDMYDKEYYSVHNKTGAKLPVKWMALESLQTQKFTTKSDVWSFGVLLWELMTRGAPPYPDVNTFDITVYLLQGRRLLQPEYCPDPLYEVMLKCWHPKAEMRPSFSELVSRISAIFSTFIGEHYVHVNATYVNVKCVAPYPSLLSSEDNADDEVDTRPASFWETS
# Sequence of Epidermal growth factor receptor (P00533 whole entry): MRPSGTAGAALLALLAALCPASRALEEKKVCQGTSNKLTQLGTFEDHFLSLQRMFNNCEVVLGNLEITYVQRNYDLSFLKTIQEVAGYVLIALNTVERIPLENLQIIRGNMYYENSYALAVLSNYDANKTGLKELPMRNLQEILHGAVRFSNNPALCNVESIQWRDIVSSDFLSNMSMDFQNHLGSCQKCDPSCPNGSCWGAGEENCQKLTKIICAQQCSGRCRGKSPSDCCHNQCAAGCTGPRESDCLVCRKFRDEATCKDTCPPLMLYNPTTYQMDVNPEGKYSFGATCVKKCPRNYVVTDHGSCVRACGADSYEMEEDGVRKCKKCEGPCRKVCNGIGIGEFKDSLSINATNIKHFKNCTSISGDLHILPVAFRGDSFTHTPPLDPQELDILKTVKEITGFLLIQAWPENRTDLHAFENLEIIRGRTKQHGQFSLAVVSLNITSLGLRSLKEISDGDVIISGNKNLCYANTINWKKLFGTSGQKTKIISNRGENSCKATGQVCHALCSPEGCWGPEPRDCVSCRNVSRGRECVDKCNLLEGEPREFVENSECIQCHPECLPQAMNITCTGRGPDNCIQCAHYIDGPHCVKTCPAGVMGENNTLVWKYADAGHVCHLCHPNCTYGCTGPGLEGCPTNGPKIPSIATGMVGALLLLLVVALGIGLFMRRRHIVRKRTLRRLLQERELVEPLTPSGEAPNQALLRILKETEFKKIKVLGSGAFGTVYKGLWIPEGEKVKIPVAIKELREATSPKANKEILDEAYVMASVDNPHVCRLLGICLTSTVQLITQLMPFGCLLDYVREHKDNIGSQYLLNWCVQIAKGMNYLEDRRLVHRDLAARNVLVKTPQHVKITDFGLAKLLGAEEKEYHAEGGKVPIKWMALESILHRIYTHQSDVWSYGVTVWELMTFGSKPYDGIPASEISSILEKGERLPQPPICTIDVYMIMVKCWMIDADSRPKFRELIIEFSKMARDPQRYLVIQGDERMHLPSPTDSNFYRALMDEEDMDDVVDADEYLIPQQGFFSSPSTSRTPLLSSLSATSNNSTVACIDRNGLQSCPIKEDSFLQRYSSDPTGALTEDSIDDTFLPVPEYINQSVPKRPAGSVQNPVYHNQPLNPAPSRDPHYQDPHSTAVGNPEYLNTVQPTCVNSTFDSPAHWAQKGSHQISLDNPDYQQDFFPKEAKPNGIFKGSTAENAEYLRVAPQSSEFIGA
# Sequence of Vascular endothelial growth factor receptor 2 (P35968 whole entry): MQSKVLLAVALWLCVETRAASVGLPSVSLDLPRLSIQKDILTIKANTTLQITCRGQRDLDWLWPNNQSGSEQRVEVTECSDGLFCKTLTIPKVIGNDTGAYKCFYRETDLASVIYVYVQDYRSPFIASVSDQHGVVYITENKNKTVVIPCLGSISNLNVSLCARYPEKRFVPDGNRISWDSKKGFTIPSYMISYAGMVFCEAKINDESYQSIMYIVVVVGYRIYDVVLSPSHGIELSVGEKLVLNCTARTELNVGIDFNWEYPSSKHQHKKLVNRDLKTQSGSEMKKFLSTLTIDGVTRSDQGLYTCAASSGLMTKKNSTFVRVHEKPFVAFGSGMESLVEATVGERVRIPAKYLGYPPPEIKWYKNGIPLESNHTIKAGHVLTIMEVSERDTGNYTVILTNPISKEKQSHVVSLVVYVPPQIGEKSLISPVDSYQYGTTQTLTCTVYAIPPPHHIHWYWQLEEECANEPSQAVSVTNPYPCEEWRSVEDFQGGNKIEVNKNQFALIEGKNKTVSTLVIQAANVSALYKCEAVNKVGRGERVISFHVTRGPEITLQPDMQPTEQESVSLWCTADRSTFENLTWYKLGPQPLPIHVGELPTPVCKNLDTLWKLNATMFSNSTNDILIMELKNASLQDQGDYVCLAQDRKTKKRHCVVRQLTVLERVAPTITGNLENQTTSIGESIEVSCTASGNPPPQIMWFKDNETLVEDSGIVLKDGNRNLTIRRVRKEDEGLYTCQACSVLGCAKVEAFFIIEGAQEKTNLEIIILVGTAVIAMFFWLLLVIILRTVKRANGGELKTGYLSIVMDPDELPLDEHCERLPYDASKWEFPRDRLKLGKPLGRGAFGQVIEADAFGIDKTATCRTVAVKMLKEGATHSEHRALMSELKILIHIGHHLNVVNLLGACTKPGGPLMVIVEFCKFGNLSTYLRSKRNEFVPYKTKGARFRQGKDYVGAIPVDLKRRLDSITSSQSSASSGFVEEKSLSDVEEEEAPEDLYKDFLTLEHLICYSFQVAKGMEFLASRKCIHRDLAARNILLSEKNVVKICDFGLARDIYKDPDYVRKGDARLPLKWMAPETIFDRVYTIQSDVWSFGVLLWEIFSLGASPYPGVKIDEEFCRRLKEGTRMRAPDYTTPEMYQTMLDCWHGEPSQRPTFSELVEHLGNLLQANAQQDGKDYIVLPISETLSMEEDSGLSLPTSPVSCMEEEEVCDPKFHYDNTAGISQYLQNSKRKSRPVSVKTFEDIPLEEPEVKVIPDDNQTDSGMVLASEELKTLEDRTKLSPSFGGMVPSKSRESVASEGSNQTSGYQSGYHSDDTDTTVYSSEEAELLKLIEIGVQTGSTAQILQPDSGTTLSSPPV
# Sequence of Proto-oncogene tyrosine-protein kinase receptor Ret (P07949 whole entry): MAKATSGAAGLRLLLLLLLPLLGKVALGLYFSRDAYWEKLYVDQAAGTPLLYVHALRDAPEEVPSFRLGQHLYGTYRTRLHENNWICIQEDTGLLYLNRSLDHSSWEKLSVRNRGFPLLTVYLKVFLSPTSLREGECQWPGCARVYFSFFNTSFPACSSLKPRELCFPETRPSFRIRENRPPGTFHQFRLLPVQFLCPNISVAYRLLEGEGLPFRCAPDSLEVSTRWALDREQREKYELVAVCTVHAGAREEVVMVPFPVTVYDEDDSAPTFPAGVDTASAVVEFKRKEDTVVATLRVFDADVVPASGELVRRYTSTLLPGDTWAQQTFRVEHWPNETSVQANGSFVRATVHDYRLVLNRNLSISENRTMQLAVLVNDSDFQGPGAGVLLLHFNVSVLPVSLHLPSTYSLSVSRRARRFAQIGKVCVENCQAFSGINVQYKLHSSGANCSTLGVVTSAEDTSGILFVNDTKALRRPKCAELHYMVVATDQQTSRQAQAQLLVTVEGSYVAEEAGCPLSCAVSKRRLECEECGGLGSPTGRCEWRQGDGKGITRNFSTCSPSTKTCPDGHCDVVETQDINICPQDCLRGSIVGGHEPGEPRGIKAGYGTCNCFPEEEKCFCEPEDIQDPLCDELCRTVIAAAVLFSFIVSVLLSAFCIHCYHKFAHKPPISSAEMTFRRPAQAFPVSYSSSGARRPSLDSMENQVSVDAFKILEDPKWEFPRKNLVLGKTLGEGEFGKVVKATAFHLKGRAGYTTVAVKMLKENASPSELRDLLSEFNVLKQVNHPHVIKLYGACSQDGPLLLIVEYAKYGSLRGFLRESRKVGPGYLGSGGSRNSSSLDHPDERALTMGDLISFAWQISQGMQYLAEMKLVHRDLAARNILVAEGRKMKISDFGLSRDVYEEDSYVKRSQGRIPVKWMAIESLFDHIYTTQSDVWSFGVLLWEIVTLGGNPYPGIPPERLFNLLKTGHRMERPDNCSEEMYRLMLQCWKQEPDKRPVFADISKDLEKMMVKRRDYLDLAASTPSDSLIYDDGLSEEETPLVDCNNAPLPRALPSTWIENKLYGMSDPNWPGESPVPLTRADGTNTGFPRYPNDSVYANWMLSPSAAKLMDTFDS
structure (smiles),measurement,setting,value
COc1cc2c(cc1OC)C(=O)Nc1c(ncnc1Oc1ccc(NC(=O)C3(C(=O)Nc4ccc(F)cc4)CC3)cc1)N2,IC50,[1],> 1000 nM
Cc1nc(Oc2ccc(NC(=O)C3(C(=O)Nc4ccc(F)cc4)CC3)cc2)c2c(n1)Oc1ccccc1CN2,IC50,[1],> 1000 nM
O=C(Nc1ccc(F)cc1)C1(C(=O)Nc2ccc(Oc3ncnc4c3N=Cc3ccccc3O4)cc2)CC1,IC50,[1],> 1000 nM
Cc1nc(Oc2ccc(NC(=O)C3(C(=O)Nc4ccc(F)cc4)CC3)cc2)c2c(n1)Oc1ccccc1C=N2,IC50,[1],> 1000 nM
COc1cc2c(cc1OC)Nc1ncnc(Oc3ccc(NC(=O)C4(C(=O)Nc5ccc(F)cc5)CC4)cc3)c1N(C)C2,IC50,[1],> 1000 nM
COc1cc2c(cc1OC)Nc1ncnc(Oc3ccc(NC(=O)C4(C(=O)Nc5ccc(F)cc5)CC4)cc3)c1N=C2,IC50,CAKI-1 [2],1480 nM
same,IC50,PANC-1,2720 nM
same,IC50,PC-3,1420 nM
same,IC50,HepG2,2070 nM
COc1cc2c(cc1OC)Oc1ncnc(Oc3ccc(NC(=O)C4(C(=O)Nc5ccc(F)cc5)CC4)cc3)c1N=C2,IC50,[1],> 1000 nM
COc1cc2c(cc1OC)Nc1nccc(Oc3ccc(NC(=O)C4(C(=O)Nc5ccc(F)cc5)CC4)cc3F)c1NC2,IC50,[1],> 1000 nM
COc1cc2c(cc1OC)Nc1ncnc(Oc3ccc(NC(=O)C4(C(=O)Nc5ccc(F)cc5)CC4)cc3F)c1NC2,IC50,CAKI-1 [2],748 nM
same,IC50,PANC-1,1860 nM
same,AUC(0-inf),[3],3590 ng·h/mL
same,inhibition in vivo at 80 mg/kg,CAKI-1 [4],64.5%
same,CL/F,[5],48.8 mL/min/kg
same,inhibition in vivo at 20 mg/kg,CAKI-1 [6],51.1%
same,Activity,Mus musculus [7],Non-Toxic
same,half-life,[8],0.91 h
same,IC50,[9],268 nM
same,Cmax,[10],4660 ng/mL
same,IC50,[11],852 nM
same,IC50,[1],24.4 nM
same,Activity,Mus musculus [12],Non-Toxic
same,MRT last,[13],2.36 h
same,MRT last,[14],1 h
same,IC50,PC-3,4100 nM
same,bioavailability,[15],39%
same,AUC(0-inf),[16],7080 ng·h/mL
same,Activity,Mus musculus [17],Non-Toxic
same,survival at 336 h,[18],100%
same,survival at 336 h,[19],60%
same,CLz/F,Rattus norvegicus [20],19 mL/min/kg
same,half-life,[21],1.09 h
same,Activity,Mus musculus [22],Non-Toxic
same,survival at 336 h,[23],100%
same,IC50,HepG2,2950 nM
same,survival at 336 h,[24],100%
same,survival at 336 h,[25],40%
same,AUC(0-t),[26],3590 ng·h/mL
same,AUC(0-t),[27],6990 ng·h/mL
same,IC50,[28],> 40000 nM
same,Vz/F,Rattus norvegicus [29],1.48 L/kg
same,Vd/F,[30],4.52 L/kg
same,IC50,[31],62.5 nM
same,IC50,[32],163 nM
same,IC50,[33],259 nM
same,Cmax,[34],1930 ng/mL
same,Tmax,[35],1.67 h
same,inhibition in vivo at 40 mg/kg,CAKI-1 [36],58.9%
same,survival at 336 h,[37],80%
COc1cc2c(cc1OC)C(=O)Nc1c(Oc3ccc(NC(=O)C4(C(=O)Nc5ccc(F)cc5)CC4)cc3)ccnc1N2,IC50,[1],> 1000 nM
